Experiments:
rats = assay: Positive emotional learning (PEL) test, rat 50-kHz ultrasonic vocalizations (USVs); type: in vivo
Procedure: Experiments were conducted as described in Burgdorf et al., “The effect of selective breeding for differential rates of 50-kHz ultrasonic vocalizations on emotional behavior in rats,” Devel. Psychobiol., 51:34-46 (2009). Rat 50-kHz ultrasonic vocalization (hedonic USVs) is a validated model for the study of positive affective state and is best elicited by rough-and-tumble play.
The PEL assay measures the acquisition of positive (hedonic) 50-kHz ultrasonic vocalizations (USVs) to a social stimulus, heterospecific rough and tumble play stimulation. Heterospecific rough-and-tumble play stimulation was administered by the experimenter's right hand. […] High frequency ultrasonic vocalizations (USVs) were recorded and analyzed by sonogram with Avasoft SASlab Pro (Germany) as previously described by Burgdorf et al., “Positive emotional learning is regulated in the medial prefrontal cortex by GluN2B-containing NMDA receptors,” Neuroscience, 192:515-523 (2011). Frequency modulated 50-kHz USVs that occurred during each of the no-stimulation periods were quantified to measure PEL. […] Positive emotional learning was measured during the conditioned stimulus (CS) trials preceding the tickle unconditioned stimulus (UCS) trials. […] Running speed for animals to self administer tickling at the end of the 3 min session was also measured. […]

[1] = Microsomal stability, human; type: in vitro ADME
Procedure: (§1) Microsomal and plasma stability of Compound A was investigated. The following table indicates the percent of Compound A remaining after 60 minutes.
(§2) Microsomal and plasma stability of Compound B was investigated. The following table indicates the percent of Compound B remaining after 60 minutes.

[2] = Microsomal stability, rat; type: in vitro ADME
Procedure: as §1, §2

Plasma stability, human = type: in vitro ADME
Procedure: as §1, §2

Sprague Dawley rats [3] = assay: Blast-induced traumatic brain injury/cognitive deficits measured by PEL; type: in vivo, rat; details: 10 mg/kg PO 1 h post-blast; PEL 48 hours post-blast
From the text: Single blast-induced traumatic brain injury/cognitive deficits were induced, modified for use in rats according to the protocol of Goldstein et al., “Chronic traumatic encephalopathy in blast-exposed military veterans and a blast neurotrauma mouse model,” Science Translational Medicine, Vol. 4, Issue 134, pp. 134ra60, 2012. Male 2-3 month old Sprague Dawley rats were used. Rats were housed in Lucite cages with aspen wood chip bedding, maintained on a 12:12 light:dark cycle (lights on at 5 AM), and given ad libitum access to Purina lab chow (USA) and tap water throughout the study. Rats were first anesthetized using 3.5-4% isoflurane, then the ears were protected with 1.5×1.5 mm foam plugs (Pura-Fit®, Moldex-Metric Inc., Culver City, Calif.), and the rat was placed into a head access rodent thoracic restrainer (Stoelting, USA) to protect the body while allowing the head to move freely. […]
PEL (Positive emotional learning) was conducted 48 hours post-blast. […] High frequency ultrasonic vocalizations (USVs) were recorded and analyzed by sonogram with Avasoft SASlab Pro (Germany) as previously described by Burgdorf et al., “Positive emotional learning is regulated in the medial prefrontal cortex by GluN2B-containing NMDA receptors,” Neuroscience, 192:515-523, 2011. Frequency raodulated 50-kH-z USVs that occurred during each the no-stimulation periods were quantified to measure PEL. […]

Sprague Dawley rats [4] = assay: Porsolt forced swim test; type: in vivo, rat; details: compared to vehicle group
Procedure: A non-clinical in vivo pharmacology study (Porsoit assay) was performed to measure antidepressant-like effects. A negative control (0.5% sodium carboxymethyl cellulose in 0.9% sterile saline vehicle) and a positive control (Compound D) were used to compare against Compound A and Compound B. The study allowed for the construction of a dose-response curve of the effects of each compound on the Porsolt forced swim test as assessed by the rats' response (reduced floating time) during a 5-minute swimming test.
Male 2-3 month old Sprague Dawley rats were used (Harlan, Indianapolis, Ind.). Rats were housed in Lucite cages with aspen wood chip bedding, maintained on a 12:12 light:dark cycle (lights on at 5 AM), and given ad libitum access to Purina lab chow (USA) and tap water throughout the study.
The Porsolt forced swim test adapted for use in rats was performed as described by Burgdorf et al., (The long-lasting antidepressant effects of rapastinel (GLYX-13) are associated with a metaplasticity process in the medial prefrontal cortex and hippocampus. Neuroscience 308:202-211, 2015). […] Animals were videotaped, and floating time as defined as the minimal amount of effort required to keep the animals head above water was scored offline by a blinded experimenter with high inter-rater reliability (Pearson's r>0.9). […]

NMDAR2A = NMDAR2A (Homo sapiens, UniProt Q12879); assay: Potentiation of [3H]MK-801 binding, NMDAR2A; set-up: species or system rat; details: NMDAR2A binding profile, wild-type
Chain of NMDAR2A (Q12879 23-1464, species assumed, other chains not shown): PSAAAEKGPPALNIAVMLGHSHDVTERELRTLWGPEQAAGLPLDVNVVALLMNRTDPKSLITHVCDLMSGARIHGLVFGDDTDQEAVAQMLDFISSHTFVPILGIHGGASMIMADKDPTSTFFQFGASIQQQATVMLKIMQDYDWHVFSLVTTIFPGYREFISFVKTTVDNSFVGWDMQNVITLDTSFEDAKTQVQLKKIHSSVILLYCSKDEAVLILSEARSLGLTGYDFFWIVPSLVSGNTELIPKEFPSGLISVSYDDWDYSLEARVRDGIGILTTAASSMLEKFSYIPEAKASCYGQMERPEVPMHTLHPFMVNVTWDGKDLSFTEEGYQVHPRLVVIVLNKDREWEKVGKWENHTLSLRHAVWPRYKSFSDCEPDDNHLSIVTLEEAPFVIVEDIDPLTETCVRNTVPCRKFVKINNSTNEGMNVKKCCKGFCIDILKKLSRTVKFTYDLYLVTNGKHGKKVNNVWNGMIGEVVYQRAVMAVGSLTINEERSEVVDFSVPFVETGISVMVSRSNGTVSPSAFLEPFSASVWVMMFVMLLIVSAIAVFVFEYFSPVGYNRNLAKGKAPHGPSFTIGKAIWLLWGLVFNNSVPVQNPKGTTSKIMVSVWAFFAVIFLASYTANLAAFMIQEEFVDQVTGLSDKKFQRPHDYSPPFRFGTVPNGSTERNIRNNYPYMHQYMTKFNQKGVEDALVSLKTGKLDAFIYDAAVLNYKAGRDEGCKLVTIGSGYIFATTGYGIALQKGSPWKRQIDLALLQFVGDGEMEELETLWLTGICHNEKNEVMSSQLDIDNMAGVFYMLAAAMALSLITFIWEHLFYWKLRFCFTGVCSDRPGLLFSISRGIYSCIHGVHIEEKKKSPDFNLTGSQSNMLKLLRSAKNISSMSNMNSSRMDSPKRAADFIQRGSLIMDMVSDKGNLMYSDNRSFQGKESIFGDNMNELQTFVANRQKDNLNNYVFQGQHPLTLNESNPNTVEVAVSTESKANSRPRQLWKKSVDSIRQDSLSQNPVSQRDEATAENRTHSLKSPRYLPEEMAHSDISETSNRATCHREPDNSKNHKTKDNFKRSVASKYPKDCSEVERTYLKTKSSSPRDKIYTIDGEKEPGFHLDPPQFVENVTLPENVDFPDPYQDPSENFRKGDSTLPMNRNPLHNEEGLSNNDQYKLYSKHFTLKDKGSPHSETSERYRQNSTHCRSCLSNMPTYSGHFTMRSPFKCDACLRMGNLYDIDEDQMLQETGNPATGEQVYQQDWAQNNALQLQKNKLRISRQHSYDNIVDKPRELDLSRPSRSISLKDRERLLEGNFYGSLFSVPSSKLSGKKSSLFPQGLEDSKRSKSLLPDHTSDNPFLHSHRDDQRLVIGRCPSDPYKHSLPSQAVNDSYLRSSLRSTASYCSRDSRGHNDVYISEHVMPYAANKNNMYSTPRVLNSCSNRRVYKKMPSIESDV

Row | Structure (SMILES) | positive emotional learning as measured by rat USVs (rats; administered one hour prior to PEL testing) | Microsomal stability, percent remaining after 60 minutes [1] [%] | Microsomal stability, percent remaining after 60 minutes [2] [%] | Plasma stability, percent remaining after 60 minutes (Plasma stability, human) [%] | blast-induced cognitive deficits as measured by PEL (Sprague Dawley rats [3]) | floating time in the Porsolt test (antidepressant-like effect) (Sprague Dawley rats [4]; 10-1000 μg/kg PO, 1 h post-dosing) | EC50 (NMDAR2A) [nM] | positive emotional learning in the rat USVs test (rats; rat, in vivo) | floating time in the Porsolt test (antidepressant-like effect) (Sprague Dawley rats [4]; 0.1-10 μi/kg PO, 1 hour post-dosing)
1 | CC(C)CN1CCC[C@]12CN([C@H](C(N)=O)[C@@H](C)O)C2=O [Compound A, (2S,3R)-3-hydroxy-2-((R)-5-isobutyl-1-oxo-2,5-diazaspiro[3.4]octan-2-yl)butanamide] | increases positive emotional learning | 86 | 65 | 100 | reversed blast-induced cognitive deficits | produces an antidepressant-like effect | 0.00457 |  | 
2 | CC(C)CN1CCC[C@@]12CN([C@H](C(N)=O)[C@@H](C)O)C2=O [Compound B, (2S,3R)-3-hydroxy-2-((S)-5-isobutyl-1-oxo-2,5-diazaspiro[3.4]octan-2-yl)butanamide] |  | 87 | 81 | 100 | reversed blast-induced cognitive deficits |  | 0.977 | increases positive emotional learning | produces an antidepressant-like effect
